Columns and labels:
Assay in all cases: Kinase selectivity, scanMAX Kinase assay panel (DiscoverX), % control at 1 uM
Assay type in all cases: binding
[1] = molecular target: T1, scanMAX Kinase assay panel (Homo sapiens, UniProt P49137); conditions: MAPKAPK2; 1 uM; read-out: Percent Control (%)
T1 construct: purchased DiscoverX
Outline: (§1)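 Read-out is percent of control, derived from the signal with compound relative to positive and negative controls: (compound − positive)/(negative − positive) × 100. Each enzyme received test drug at 1 uM in DMSO, and values under 35% count as active.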

[2] = molecular target: T2, scanMAX Kinase assay panel (Homo sapiens, UniProt P54762); conditions: EPHB1; 1 uM; read-out: Percent Control (%)
T2 construct: purchased DiscoverX
T2 sequence (P54762 18-984): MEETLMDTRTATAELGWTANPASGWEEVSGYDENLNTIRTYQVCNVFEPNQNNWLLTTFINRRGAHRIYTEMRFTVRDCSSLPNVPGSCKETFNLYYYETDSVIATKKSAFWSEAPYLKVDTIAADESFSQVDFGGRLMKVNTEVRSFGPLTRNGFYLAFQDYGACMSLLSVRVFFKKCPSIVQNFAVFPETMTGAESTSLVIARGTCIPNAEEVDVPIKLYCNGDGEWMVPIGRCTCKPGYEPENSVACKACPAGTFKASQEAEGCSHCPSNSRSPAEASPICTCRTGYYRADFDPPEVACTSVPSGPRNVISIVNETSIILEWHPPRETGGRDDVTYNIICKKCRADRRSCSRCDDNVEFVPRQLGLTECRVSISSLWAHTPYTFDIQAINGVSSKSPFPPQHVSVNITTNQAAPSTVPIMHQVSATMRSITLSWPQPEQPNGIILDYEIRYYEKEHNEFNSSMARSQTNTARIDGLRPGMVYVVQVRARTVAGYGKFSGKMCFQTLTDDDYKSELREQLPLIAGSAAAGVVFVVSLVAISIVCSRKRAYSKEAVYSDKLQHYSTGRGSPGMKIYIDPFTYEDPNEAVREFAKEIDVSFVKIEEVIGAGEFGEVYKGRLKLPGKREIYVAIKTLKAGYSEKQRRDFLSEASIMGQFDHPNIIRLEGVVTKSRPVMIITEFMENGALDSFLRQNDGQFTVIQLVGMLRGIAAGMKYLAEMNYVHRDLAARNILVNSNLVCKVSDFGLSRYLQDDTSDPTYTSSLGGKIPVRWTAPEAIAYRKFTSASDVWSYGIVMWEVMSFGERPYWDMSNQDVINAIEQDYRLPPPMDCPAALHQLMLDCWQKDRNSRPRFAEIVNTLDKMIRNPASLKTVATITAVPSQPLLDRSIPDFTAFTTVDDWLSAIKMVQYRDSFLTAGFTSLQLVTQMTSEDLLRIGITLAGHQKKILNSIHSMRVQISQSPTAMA
Outline: as §1

[3] = molecular target: T3, scanMAX Kinase assay panel (Homo sapiens, UniProt Q16832); conditions: DDR2; 1 uM; read-out: Percent Control (%)
T3 construct: purchased DiscoverX
T3 sequence (Q16832 22-855): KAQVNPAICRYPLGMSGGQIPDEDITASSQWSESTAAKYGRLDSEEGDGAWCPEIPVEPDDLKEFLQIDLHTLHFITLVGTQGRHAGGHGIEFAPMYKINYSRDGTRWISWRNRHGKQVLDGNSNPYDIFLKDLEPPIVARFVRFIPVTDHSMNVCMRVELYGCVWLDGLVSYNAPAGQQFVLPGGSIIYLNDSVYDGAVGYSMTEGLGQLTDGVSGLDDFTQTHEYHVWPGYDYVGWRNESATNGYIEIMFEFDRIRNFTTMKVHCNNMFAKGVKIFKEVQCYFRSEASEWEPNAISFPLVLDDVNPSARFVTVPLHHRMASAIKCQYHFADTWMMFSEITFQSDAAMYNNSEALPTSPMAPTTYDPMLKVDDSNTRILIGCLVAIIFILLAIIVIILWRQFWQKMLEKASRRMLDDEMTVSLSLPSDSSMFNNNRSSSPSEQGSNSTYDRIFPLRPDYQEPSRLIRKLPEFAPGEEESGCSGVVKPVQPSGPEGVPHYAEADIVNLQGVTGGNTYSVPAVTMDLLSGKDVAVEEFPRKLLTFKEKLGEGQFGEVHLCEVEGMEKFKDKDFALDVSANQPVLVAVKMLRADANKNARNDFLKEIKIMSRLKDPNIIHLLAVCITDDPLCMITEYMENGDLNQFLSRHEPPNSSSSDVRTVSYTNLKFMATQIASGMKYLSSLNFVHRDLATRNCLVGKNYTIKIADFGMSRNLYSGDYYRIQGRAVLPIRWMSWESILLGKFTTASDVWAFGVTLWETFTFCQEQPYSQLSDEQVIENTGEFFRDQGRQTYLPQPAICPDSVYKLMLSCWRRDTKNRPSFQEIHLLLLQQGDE
Outline: as §1

[4] = molecular target: T4, scanMAX Kinase assay panel (Homo sapiens, UniProt Q16513); conditions: PKN2; 1 uM; read-out: Percent Control (%)
T4 construct: purchased DiscoverX
Outline: as §1

[5] = molecular target: T5, scanMAX Kinase assay panel (Homo sapiens, UniProt P42679); conditions: CTK; 1 uM; read-out: Percent Control (%)
T5 construct: purchased DiscoverX
T5 sequence (P42679 1-507): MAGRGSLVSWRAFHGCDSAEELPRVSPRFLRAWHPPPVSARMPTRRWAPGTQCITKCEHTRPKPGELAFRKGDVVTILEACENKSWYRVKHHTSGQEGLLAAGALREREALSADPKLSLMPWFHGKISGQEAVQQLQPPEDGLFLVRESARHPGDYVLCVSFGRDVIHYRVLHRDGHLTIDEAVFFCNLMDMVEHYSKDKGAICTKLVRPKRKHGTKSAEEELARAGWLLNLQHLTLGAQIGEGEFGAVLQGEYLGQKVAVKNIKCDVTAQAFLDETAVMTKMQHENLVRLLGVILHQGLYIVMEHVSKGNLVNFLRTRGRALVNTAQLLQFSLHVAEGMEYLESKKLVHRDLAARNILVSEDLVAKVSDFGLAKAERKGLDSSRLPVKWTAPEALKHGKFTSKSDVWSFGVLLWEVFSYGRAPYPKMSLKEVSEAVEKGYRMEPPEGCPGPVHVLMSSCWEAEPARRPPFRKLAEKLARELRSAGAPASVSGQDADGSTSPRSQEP
Outline: as §1

[6] = molecular target: T6, scanMAX Kinase assay panel (Homo sapiens, UniProt Q9NYY3); conditions: PLK2; 1 uM; read-out: Percent Control (%)
T6 construct: purchased DiscoverX
Outline: as §1

[7] = molecular target: T7, scanMAX Kinase assay panel (Homo sapiens, UniProt Q9P0L2); conditions: MARK1; 1 uM; read-out: Percent Control (%)
T7 construct: purchased DiscoverX
Outline: as §1

T7 sequence (Q9P0L2 whole entry): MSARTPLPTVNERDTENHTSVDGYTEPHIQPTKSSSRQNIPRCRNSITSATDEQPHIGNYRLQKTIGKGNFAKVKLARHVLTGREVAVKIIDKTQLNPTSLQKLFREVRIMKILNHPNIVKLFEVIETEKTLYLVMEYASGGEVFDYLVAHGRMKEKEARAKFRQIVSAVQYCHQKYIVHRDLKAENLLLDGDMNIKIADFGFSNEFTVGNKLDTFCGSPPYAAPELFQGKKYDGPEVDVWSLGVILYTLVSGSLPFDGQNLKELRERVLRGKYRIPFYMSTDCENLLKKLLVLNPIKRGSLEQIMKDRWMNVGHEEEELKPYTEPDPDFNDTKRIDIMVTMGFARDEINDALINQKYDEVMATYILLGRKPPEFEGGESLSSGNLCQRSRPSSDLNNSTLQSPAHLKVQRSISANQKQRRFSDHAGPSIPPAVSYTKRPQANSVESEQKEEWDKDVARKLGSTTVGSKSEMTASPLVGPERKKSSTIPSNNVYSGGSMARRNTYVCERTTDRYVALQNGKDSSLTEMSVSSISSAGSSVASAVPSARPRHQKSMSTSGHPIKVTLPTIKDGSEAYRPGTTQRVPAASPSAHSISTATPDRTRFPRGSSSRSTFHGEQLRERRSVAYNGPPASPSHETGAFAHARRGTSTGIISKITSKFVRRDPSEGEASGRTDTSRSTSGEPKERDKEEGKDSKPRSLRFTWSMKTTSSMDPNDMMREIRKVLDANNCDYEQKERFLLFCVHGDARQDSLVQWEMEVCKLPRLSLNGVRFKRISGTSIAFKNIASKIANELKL
T4 sequence (Q16513 whole entry): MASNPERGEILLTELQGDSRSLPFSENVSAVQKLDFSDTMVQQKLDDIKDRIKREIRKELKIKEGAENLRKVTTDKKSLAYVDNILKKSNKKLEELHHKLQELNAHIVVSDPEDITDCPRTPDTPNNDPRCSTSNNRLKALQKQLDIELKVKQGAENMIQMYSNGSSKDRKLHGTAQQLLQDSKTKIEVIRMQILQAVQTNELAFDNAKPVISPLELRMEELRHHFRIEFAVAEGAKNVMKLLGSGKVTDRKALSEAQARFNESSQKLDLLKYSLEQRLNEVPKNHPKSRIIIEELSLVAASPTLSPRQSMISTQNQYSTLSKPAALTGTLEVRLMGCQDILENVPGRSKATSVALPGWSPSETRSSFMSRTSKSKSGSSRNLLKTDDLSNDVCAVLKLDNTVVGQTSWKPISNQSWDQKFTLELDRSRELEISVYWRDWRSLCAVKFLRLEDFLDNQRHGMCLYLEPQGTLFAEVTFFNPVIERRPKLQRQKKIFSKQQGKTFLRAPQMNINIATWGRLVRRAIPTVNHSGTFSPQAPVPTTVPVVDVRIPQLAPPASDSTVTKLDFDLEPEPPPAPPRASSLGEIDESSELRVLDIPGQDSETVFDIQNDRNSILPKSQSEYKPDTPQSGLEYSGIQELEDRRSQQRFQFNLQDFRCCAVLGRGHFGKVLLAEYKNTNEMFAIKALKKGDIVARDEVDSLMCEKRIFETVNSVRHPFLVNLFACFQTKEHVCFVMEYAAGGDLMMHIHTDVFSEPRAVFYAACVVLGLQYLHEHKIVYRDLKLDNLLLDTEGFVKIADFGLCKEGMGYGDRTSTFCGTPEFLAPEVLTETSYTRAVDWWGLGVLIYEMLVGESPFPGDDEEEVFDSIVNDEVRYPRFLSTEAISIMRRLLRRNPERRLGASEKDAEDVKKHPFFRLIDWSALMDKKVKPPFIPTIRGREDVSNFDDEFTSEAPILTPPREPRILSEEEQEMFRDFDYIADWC
T6 sequence (Q9NYY3 whole entry): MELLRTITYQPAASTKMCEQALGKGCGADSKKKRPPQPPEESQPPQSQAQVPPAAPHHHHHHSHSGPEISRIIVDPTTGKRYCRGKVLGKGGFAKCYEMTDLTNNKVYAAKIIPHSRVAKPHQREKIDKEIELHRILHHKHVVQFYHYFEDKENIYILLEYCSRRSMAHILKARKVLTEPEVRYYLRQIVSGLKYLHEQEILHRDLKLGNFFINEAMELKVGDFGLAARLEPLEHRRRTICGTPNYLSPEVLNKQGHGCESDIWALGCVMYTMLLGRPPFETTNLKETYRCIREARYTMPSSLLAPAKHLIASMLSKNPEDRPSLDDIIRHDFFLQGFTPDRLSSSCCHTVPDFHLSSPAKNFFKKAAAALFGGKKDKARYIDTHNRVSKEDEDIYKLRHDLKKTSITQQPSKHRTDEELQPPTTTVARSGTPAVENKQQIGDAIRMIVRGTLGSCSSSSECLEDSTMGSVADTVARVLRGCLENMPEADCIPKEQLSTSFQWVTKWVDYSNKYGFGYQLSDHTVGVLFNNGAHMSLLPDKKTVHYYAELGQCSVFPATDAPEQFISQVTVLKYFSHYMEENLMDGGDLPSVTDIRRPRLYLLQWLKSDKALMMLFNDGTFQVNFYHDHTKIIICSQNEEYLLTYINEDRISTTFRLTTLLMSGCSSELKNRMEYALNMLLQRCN
T1 sequence (P49137 whole entry): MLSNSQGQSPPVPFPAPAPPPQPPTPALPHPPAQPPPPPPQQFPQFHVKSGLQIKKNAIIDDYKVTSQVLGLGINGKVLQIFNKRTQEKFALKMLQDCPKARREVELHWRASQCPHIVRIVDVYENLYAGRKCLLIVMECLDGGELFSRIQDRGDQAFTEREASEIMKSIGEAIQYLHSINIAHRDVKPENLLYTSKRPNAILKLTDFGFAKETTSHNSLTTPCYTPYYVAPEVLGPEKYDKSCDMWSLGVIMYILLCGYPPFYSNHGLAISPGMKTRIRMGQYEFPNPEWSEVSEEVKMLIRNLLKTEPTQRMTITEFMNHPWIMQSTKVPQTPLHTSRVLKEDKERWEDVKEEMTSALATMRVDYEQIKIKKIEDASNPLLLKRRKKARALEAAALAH

| Compound | remaining binding at 1 µM [1] | remaining binding at 1 µM [2] | remaining binding at 1 µM [3] | remaining binding at 1 µM [4] | remaining binding at 1 µM [5] | remaining binding at 1 µM [6] | remaining binding at 1 µM [7] |
| --- | --- | --- | --- | --- | --- | --- | --- |
| Cc1ccc(C(=O)Nc2ccc(CN3CCN(C)CC3)c(C(F)(F)F)c2)cc1C#Cc1cnc2c(Nc3cnn(C)c3)cccn12 [Example 1, 4-methyl-3-((8-((1-methyl-1H-pyrazol-4-yl)amino)imidazo[1,2-a]pyridin-3-yl)ethynyl)-N-(4-((4-methylpiperazin-1-yl)methyl)-3-(trifluoromethyl)phenyl)benzamide] | 100% | 0% | 0% | 83% | 22% | 84% | 78% |
| Cc1cn(-c2cc(NC(=O)c3ccc(C)c(C#Cc4cnc5c(Nc6cnn(C)c6)cccn45)c3)cc(C(F)(F)F)c2)cn1 [Example 12, 4-methyl-N-(3-(4-methyl-1H-imidazol-1-yl)-5-(trifluoromethyl)phenyl)-3-((8-((1-methyl-1H-pyrazol-4-yl)amino)imidazo[1,2-a]pyridin-3-yl)ethynyl)benzamide] | 81% | 15% | 7% | 83% | 74% | 100% | 95% |
| Cc1ccc(NC(=O)C2(C(=O)Nc3ccc(F)cc3)CC2)cc1C#Cc1cnc2c(Nc3cnn(C(C)C)c3)cccn12 [Example 78] | 98% | 90% | 3% | 89% | 90% | 62% | 100% |

Source: patent US10870647B2, “Imidazopyridine derivative, method for preparing same, and pharmaceutical composition containing same as active ingredient for preventing or treating cancer” (DAEGU-GYEONGBUK MEDICAL INNOVATION FOUNDATION, priority 2016, dated 2020)
